“Also recorded” adds a separate entry of the source.
Columns and labels:
5-HT1D = molecular target: T1, 5-HT1D (Homo sapiens, UniProt P28221); experiment: PDSP primary binding, 5-HT1D; conditions: n = 4, read-out: Inhibition (primary binding competition efficacy), 5-HT1D
T1 construct: purchased NIMH Psychoactive Drug Screening Program (PDSP)
Protocol: (§1) For experimental details, please refer to the Psychoactive Drug Screening Program (PDSP) web site http://pdsp.med.unc.edu/.
(§2) ^a The default concentration for primary binding experiments is 10 µM (n = 4). ^b Negative inhibition represents a stimulation of binding. ^c BZPR: Benzodiazepine Receptors (rat brain site). ^d DOR: Delta Opioid Receptor; KOR: Kappa Opioid Receptor; MOR: Mu Opioid Receptor. ^e DAT: Dopamine Transporter; NET: Norepinephrine Transporter; SERT: Serotonin Transporter. ^f NMDA: N-methyl-D-aspartate receptor.

5-HT2B = molecular target: T2, 5-HT2B (Homo sapiens, UniProt P41595); experiment: PDSP primary binding, 5-HT2B; conditions: n = 4, read-out: Inhibition (primary binding competition efficacy), 5-HT2B
T2 construct: purchased NIMH Psychoactive Drug Screening Program (PDSP)
T2 sequence (P41595 whole entry): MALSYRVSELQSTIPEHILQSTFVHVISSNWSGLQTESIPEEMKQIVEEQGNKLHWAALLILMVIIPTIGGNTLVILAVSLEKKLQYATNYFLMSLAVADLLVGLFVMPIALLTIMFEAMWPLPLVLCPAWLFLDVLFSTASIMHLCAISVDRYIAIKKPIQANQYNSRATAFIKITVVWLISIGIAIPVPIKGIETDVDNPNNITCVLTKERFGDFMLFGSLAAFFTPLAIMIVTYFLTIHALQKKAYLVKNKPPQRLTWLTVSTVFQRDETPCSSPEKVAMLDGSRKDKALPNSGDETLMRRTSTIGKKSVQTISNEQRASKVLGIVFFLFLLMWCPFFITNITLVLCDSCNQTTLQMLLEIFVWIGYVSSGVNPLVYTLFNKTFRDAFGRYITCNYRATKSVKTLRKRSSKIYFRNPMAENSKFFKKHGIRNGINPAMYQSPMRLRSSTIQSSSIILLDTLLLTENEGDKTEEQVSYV
Protocol: as §1, §2

5-HT4 = molecular target: T3, 5-HT4 (Homo sapiens, UniProt Q13639); experiment: PDSP primary binding, 5-HT4; conditions: n = 4, read-out: Inhibition (primary binding competition efficacy), 5-HT4
T3 construct: purchased NIMH Psychoactive Drug Screening Program (PDSP)
T3 sequence (Q13639 whole entry): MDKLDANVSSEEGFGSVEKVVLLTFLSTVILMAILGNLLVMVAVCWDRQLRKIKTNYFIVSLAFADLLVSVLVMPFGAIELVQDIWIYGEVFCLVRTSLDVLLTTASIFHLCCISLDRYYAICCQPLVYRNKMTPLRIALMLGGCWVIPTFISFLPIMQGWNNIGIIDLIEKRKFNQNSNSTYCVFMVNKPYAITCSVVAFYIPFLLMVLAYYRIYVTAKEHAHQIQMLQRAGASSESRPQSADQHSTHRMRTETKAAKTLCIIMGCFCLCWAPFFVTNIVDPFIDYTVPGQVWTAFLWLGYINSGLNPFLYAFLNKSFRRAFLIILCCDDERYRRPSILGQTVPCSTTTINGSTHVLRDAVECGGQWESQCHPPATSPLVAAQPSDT
Protocol: as §1, §2

5-HT6 = molecular target: T4, 5-HT6 (Homo sapiens, UniProt P50406); experiment: PDSP primary binding, 5-HT6; conditions: n = 4, read-out: Inhibition (primary binding competition efficacy), 5-HT6
T4 construct: purchased NIMH Psychoactive Drug Screening Program (PDSP)
T4 sequence (P50406 whole entry): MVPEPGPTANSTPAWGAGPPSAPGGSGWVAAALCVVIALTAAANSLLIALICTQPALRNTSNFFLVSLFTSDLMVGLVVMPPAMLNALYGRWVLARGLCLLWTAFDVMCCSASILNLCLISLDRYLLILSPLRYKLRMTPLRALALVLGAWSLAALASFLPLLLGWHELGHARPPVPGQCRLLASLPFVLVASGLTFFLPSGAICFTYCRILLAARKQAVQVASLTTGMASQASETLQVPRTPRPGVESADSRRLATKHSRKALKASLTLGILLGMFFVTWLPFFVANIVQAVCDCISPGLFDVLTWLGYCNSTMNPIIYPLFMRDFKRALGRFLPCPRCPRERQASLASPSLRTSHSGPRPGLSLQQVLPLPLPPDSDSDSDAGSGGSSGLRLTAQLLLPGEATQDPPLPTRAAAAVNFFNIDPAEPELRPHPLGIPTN
Protocol: as §1, §2

[1] = test system: BZPR: Benzodiazepine Receptors (rat brain site); experiment: PDSP primary binding, BZPR; conditions: 10 µM, n = 4
Protocol: as §1, §2

α1A adrenergic receptor = molecular target: T5, α1A adrenergic receptor (Homo sapiens, UniProt P35348); experiment: PDSP primary binding, α1A; conditions: n = 4, read-out: Inhibition (primary binding competition efficacy), α1A
T5 construct: purchased NIMH Psychoactive Drug Screening Program (PDSP)
T5 sequence (P35348 whole entry): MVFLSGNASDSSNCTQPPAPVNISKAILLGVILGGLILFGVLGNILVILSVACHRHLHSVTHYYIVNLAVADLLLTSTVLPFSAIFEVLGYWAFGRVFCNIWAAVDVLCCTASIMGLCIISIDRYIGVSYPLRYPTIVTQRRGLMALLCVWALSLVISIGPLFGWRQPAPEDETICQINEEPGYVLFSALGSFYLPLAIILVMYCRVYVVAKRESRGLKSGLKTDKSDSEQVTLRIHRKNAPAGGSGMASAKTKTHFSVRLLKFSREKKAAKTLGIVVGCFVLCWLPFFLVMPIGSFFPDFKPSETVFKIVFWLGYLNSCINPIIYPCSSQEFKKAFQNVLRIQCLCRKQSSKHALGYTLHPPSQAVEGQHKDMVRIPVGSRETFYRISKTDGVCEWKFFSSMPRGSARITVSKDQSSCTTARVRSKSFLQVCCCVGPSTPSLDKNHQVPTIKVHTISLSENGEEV
Protocol: as §1, §2

α1D adrenergic receptor = molecular target: T6, α1D adrenergic receptor (Homo sapiens, UniProt P25100); experiment: PDSP primary binding, α1D; conditions: n = 4, read-out: Inhibition (primary binding competition efficacy), α1D
T6 construct: purchased NIMH Psychoactive Drug Screening Program (PDSP)
T6 sequence (P25100 whole entry): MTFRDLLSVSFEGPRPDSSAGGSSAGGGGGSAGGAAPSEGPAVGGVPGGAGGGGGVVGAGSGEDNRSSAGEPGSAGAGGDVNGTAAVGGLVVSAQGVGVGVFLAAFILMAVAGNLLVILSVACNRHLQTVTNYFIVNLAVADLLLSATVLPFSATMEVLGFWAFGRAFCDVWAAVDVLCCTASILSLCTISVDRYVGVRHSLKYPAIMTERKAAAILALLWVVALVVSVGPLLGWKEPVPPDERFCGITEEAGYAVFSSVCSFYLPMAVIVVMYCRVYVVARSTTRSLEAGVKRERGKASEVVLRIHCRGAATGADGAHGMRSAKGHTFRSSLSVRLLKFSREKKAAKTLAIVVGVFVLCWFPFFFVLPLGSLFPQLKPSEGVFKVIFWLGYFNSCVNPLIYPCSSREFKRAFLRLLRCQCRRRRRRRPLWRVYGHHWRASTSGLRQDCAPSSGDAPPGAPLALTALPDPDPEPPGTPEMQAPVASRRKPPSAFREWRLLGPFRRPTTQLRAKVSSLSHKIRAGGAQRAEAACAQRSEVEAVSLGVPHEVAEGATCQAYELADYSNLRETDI
Protocol: as §1, §2

M1 muscarinic receptor = molecular target: T7, M1 muscarinic receptor (Homo sapiens, UniProt P11229); experiment: PDSP primary binding, M1; conditions: n = 4, read-out: Inhibition (primary binding competition efficacy), M1
T7 construct: purchased NIMH Psychoactive Drug Screening Program (PDSP)
T7 sequence (P11229 whole entry): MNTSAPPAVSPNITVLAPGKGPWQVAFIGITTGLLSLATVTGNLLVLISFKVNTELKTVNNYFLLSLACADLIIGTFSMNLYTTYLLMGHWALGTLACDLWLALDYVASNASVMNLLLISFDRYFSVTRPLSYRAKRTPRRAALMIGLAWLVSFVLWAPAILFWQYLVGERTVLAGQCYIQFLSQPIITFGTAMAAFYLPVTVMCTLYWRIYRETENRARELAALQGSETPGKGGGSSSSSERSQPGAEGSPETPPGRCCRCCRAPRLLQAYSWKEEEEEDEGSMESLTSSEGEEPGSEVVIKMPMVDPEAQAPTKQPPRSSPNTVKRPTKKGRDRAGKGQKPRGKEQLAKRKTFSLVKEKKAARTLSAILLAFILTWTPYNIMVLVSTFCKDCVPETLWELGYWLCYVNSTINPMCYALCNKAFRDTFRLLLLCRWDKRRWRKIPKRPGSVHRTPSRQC
Protocol: as §1, §2

[2] = Metabolic stability, cryopreserved hepatocytes, mouse; type: in vitro ADME; conditions: CD-1, 1.0E-06 M, 2 h
CYP2C9 = molecular target: T8, CYP2C9 (Homo sapiens, UniProt P11712); experiment: CYP2C9 inhibition, HLM, diclofenac substrate; type: in vitro ADME; conditions: 1.0E-05 M
T8 construct: from tissue; host or cells: human liver microsomes (HLM)
T8 sequence (P11712 whole entry): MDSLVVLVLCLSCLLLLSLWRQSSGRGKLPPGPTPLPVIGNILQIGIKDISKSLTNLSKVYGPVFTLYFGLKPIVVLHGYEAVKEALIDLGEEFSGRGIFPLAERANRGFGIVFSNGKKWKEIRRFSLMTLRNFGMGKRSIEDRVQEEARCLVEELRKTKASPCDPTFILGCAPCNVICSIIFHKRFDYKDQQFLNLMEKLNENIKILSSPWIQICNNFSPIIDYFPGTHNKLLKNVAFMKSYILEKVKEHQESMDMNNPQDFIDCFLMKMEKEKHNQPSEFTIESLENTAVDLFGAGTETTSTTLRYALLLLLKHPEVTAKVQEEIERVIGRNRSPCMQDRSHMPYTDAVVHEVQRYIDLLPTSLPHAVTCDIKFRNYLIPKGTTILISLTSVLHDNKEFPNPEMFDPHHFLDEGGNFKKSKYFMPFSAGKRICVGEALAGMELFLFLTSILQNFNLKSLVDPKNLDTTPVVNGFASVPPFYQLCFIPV
From the text: Supplement prp20002-e00026-sd1.doc, table 3: Table 3.

[3] = test system: five different cytochrome P450 (CYP450) enzymes (2D6, 3A, 1A, 2C9, and 2C19); experiment: CYP450 inhibition panel (summary); type: in vitro ADME, human; conditions: in words
[4] = Bacterial cytotoxicity, strain TA100; type: cell-based; conditions: Salmonella typhimurium, bacterial tester strain TA100 without S9, read-out: Cytotoxicity (% of Control Values)
From the text: Supplement prp20002-e00026-sd1.doc, table 4: Table 4.

Male C57 BL6 mice = experiment: SmartCube test; type: in vivo, mouse
Protocol: Male C57 BL6 mice (Taconic Farms) were used in the SmartCube® assay (PsychoGenics Inc., Tarrytown, NY). Mice were received at 7 weeks old and group-housed in OptiMICE ventilated cages with four mice/cage. Mice were acclimated to the colony room for at least 1 week prior to the first injections. All animals were tested in SmartCube® at 8 10 weeks old.
To acquire initial in vivo evaluation of our nicotinic ligands for behavioral effects relevant to psychiatric diseases, we used SmartCube®, an automated system in which mouse behavior is captured by digital video using novel, proprietary hardware that presents multiple challenges in a single test session and is analyzed with computer algorithms. Digital videos of the subjects are processed with computer vision algorithms to extract more than 1400 dependent measures including frequency and duration of behavioral states such as grooming, rearing, etc., and many other features obtained during the test session. Using machine learning techniques chosen to best separate pharmacological effects of reference compounds, the behavioral signatures of the mutant mice are then assessed quantitatively.
The most dominant of the features collected that define the drug class signature are identified and ranked using complex proprietary bioinformatics algorithms. The outcome of a SmartCube® run is a set of more than 1400 features (behavioral parameters) that can be used for various analyses. Many of these features are correlated (e.g., rearing counts and supported rearing counts). Therefore, we form statistically independent combinations of the original features (further referred to as decorrelated features) that discriminate between the groups more effectively. Next, we apply a proprietary feature ranking algorithm to score each feature discrimination power to weight each feature change by its relevance. The data obtained in this way are used to define drug signatures for known reference compounds and to establish therapeutic class signatures against which a test sample can be compared. The neuropharmacological effects of a test compound can be predicted by similarity to major classes of compounds, such as antipsychotics, anxiolytics, and antidepressants (Roberds et al. [2011]).
Mice are taken in their home cage to the SmartCube® suite of experimental rooms where they remain until they are placed in the apparatus for a single testing session. A standard SmartCube® protocol runs for a single session (∼45 min). After the session mice are group-housed again and brought back to the colony room. Any abnormal behavior is noted. […] At least 12 mice were used in each treatment group.

Male Balb/CJ mice = experiment: Forced swim test; type: in vivo, mouse
From the text: Male Balb/CJ mice (Jackson Laboratories, Bar Harbor, ME) were used in the forced swim test (FST). Upon receipt, mice were assigned unique identification numbers (tail marked) and were group-housed in OptiMICE ventilated cages. Mice were acclimated to the colony room for at least 1 week prior to drug administration. Mice were 8–10 weeks of age at time of FST.
Procedures have been previously described (Porsolt et al. [1977]). Naïve mice were individually placed into clear glass cylinders (15 cm tall × 10 cm wide, 1 L beakers) containing 23 ± 1°C water 12 cm deep (∼800 mL). […] Thirty minutes following the administration, mice were placed in the water, and the time the animal spent immobile was recorded over a 6-min trial. Immobility was defined as the postural position of floating in the water. Only one session is required for the forced swim test in mice.

T1 sequence (P28221 whole entry): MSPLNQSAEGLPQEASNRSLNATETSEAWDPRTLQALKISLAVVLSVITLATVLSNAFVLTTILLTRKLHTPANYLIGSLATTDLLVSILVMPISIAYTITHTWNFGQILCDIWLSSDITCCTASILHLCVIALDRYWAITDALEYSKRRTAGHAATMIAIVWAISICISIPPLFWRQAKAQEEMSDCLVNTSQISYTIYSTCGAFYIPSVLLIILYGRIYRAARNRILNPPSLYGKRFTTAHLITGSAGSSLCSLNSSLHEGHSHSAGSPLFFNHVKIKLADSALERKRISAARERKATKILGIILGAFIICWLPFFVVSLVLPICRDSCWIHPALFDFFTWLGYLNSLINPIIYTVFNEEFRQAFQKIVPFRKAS

OCCc1cc(-c2cncc(OC[C@@H]3CCN3)c2)on1 [LF-3-88, 2-[5-[5-(2(S)-azetidinylmethoxyl)-3-pyridyl]-3-isoxazolyl]ethanol]
inhibition at 10 µM (5-HT1D): -14.9% | inhibition at 10 µM (5-HT2B): 7.9% | inhibition at 10 µM (5-HT4): 3.7% | inhibition at 10 µM (5-HT6): -1.9% | Inhibition (primary binding competition efficacy), BZPR [1]: 6.7% | inhibition at 10 µM (α1A adrenergic receptor): -5.5% | inhibition at 10 µM (α1D adrenergic receptor): -3.4% | inhibition at 10 µM (M1 muscarinic receptor): 8.8% | Remaining (metabolic stability) [2]: 91% | CYP2C9 Inhibition (CYP2C9): 4% | inhibition toward five CYP450 enzymes [3]: No significant inhibition | viability at 0.0001 M ([4]; strain TA100 – S9, 1.0E-04 M): 139% | viability at 10 µM ([4]; strain TA100 – S9, 1.0E-05 M): 103% | viability at 1.25 µM ([4]; strain TA100 – S9, 1.25E-06 M): 102% | viability at 25 µM ([4]; strain TA100 – S9, 2.5E-05 M): 115% | viability at 2.5 µM ([4]; strain TA100 – S9, 2.5E-06 M): 99% | viability at 50 µM ([4]; strain TA100 – S9, 5.0E-05 M): 125% | viability at 5 µM ([4]; strain TA100 – S9, 5.0E-06 M): 103% | viability at 625 nM ([4]; strain TA100 – S9, 6.25E-07 M): 101% | SmartCube antidepressant (green) component (Male C57 BL6 mice; 5 and 10 mg/kg, i.p.): antidepressive-like behavioral signatures; also recorded: potential antidepressive-like behavior; also recorded: most pronounced | SmartCube side effects (Male C57 BL6 mice; 5 and 10 mg/kg, i.p.): Minimal side effects | SmartCube side effect signature (Male C57 BL6 mice; both tested doses (5 and 10 mg/kg)): less than 10% | SmartCube behavioral signature (Male C57 BL6 mice; both tested doses, i.p., 15 min preinjection): robust CNS drug-like signatures | immobility in forced swim test (Male Balb/CJ mice; 1, 3, and 10 mg/kg, p.o.): decreased immobility; also recorded: reduce the immobility dose-dependently | immobility in forced swim test (Male Balb/CJ mice; 1 and 3 mg/kg, i.p., 30 min pretreatment, 6-min trial, vs water): decreased immobility; also recorded: dose-dependently reduced immobility | minimum effective dose in forced swim test (Male Balb/CJ mice; i.p.): 1 mg/kg

— PMC4184702 (Pharmacology Research & Perspectives, 2014)
